Data reported in PMC9489722, “Identification and development of a subtype-selective allosteric AKT inhibitor suitable for clinical development” (Scientific Reports, 2022).
Where two headings read alike, the source gives them in different places.

Experiments:
[1] = tested on: pGSK3β in PC3 prostate cancer cells; assay: pGSK3β ELISA in PC3 cells; assay type: cell-based; conditions: Homo sapiens, PC-3; PC3 cells, 24 h
Procedure: (§1) Cells were then washed with PBS and lysed. The subsequent supernatant was assayed using a GSK3β (pS9) (Invitrogen, Life Technologies) ELISA. Phospho-AKT levels were detected using the phospho-AKT (S473) immunoassay (R&D Systems) as per manufacturer’s protocol. Percentage inhibition of phosphorylation status was calculated by comparing phospho-AKT levels to total AKT levels with each treatment and IC50 values derived using non-linear regression on GraphPad Prism.

[2] = tested on: ∆AKT2; assay: PH domain null AKT2 biochemical kinase assay (FP iMAP)
Procedure: Biochemical analysis was performed using kinases obtained from Millipore (AKT1, ∆AKT1, ∆AKT2, ∆AKT3) and Signal Chem (AKT2 and AKT3). The specific activity of AKT 1,2 and 3 was determined to be 114 nmol/min/mg, 44 nmol/min/mg and 200 nmol/min/mg respectively as per activity assay protocol. ALM301 was profiled using the Fluorescent Polarisation (FP) iMAP Screening Express kit (Molecular Devices) using the FAM-Crosstide substrate [5FAM-[…]-OH] (Molecular Devices) against the three isoforms of AKT and their PH domain null mutants. Compounds were dissolved in DMSO prior to screening at 14 point titration series in the range (50 µM–50 pM). Fluorescence polarisation was measured using a Biotek Synergy 4 Hybrid microplate reader. Percentage inhibition of kinase activity was calculated and IC50 values derived using non-linear regression on GraphPad Prism. Competition of ALM301 with ATP was determined using AKT1 under increasing ATP concentrations up to 1000 µM.

[3] = In vitro microsomal stability, rat; assay type: in vitro ADME; conditions: pH 7.4; rat liver microsomes; read-out: rat LM CLint
Procedure: (§2) Compounds (final concentration = 1 µM; final DMSO concentration = 0.1%) were incubated in 0.1 M phosphate buffer at pH 7.4 with liver microsomes (human, mouse, rat or dog; 0.5 mg of protein/mL) at 37 °C. Reactions were started by addition of NADPH in 0.1 M phosphate buffer pH 7.4 (final concentration 1 mM). Reactions were quenched by addition of ice-cold methanol and frozen. The supernatants were analysed by LC/MS/MS on a Waters Acquity I-Class coupled to a Waters Xevo TQD mass spectrometer. A Waters BEH C18 2.1 × 50 mm 1.7 µm column was used and mobile phases consisted of water and methanol containing 0.1% formic acid as modifier. Analysis was by multiple reaction monitoring and conditions were optimised for each test compound.

[4] = molecular target: p38α (Homo sapiens, UniProt Q16539); assay: SelectScreen kinase selectivity profiling, p38α; assay type: biochemical
p38α, sequence (Q16539 whole entry): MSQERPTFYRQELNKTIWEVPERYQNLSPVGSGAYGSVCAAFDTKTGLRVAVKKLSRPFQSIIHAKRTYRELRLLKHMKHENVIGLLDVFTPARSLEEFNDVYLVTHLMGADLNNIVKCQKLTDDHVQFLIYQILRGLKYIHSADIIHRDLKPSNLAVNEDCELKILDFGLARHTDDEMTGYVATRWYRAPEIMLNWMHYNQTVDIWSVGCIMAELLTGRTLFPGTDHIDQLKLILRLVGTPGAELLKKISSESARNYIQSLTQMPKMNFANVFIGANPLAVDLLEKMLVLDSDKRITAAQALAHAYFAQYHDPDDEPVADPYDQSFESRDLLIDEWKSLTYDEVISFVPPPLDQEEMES
Procedure: (§3) Off-target kinase activity was performed using the SelectScreen kinase profiling service against either mini 50 kinase or full 450 kinase panels using the Z’lyte and Adapta kinase activity platforms (performed by Thermofisher).

[5] = tested on: MCF-7 cells; assay: Cell cycle flow cytometry; assay type: cell-based
Procedure: MCF-7 breast cancer cells were treated with increasing concentrations of ALM301 (0.1–100 µM) for 72 h. Post treatment, media containing detached cells was collected for each sample and the remaining adherent cells detached using 0.1% EDTA in PBS. Resulting cell suspensions were incorporated with associated media, centrifuged to form a pellet, washed with 1% FCS in PBS and fixed using ice-cold ethanol. Samples were stored at 4 °C for 24 h before staining with propidium iodide (10 µg/mL) (Sigma) containing 2.5 mg/mL RNase A (Qiagen) for 30 min at 37 °C and stored overnight at 4 °C before analysis. A minimum of 10,000 cells per sample were analysed for DNA content using a FACSCalibur flow cytometer and CellQuest Pro software (Becton Dickinson).

[6] = tested on: MCF-7 xenografts; assay: Efficacy study in MCF-7 breast cancer xenograft model; assay type: in vivo; conditions: MCF-7 xenograft; for tumour regression: p.o.
Procedure: For efficacy in MCF-7 xenografts, 150 SCID female mice aged 6–8 weeks and weighing approximately 18–22 g were implanted with 1 × 10^7 MCF-7 tumour cells (ATCC) subcutaneously in the right flank. […] Once mean tumour size reached approximately 150 mm^3, mice were randomised to either control or treatment groups (n = 10/group) using a randomised block approach. Groups sizes were devised based on past experience of the provider. […] Tumour size was measured twice weekly in two dimensions using a caliper, and the volume expressed in mm^3 using the formula: V = 0.5 (a x b^2), where a and b are the long and short diameters of the tumour, respectively.

[7] = tested on: pAKT (Ser473) in MCF-7 cells; assay: phospho-AKT (S473) ELISA in MCF-7 cells; assay type: cell-based; conditions: Homo sapiens, MCF7, 24h treatment, read-out: EC50 inhibition of phosphorylation of AKT
Procedure: as §1

[8] = tested on: panel of over 450 kinases; assay: SelectScreen kinase selectivity profiling, full panel; assay type: biochemical
Procedure: as §3

[9] = In vitro microsomal stability, mouse; assay type: in vitro ADME; conditions: pH 7.4; mouse liver microsomes; read-out: mouse LM CLint
Procedure: as §2

[10] = molecular target: CYP 2C19 (Homo sapiens, UniProt P33261); assay: CYP2C19 inhibition; assay type: in vitro ADME
CYP 2C19, sequence (P33261 whole entry): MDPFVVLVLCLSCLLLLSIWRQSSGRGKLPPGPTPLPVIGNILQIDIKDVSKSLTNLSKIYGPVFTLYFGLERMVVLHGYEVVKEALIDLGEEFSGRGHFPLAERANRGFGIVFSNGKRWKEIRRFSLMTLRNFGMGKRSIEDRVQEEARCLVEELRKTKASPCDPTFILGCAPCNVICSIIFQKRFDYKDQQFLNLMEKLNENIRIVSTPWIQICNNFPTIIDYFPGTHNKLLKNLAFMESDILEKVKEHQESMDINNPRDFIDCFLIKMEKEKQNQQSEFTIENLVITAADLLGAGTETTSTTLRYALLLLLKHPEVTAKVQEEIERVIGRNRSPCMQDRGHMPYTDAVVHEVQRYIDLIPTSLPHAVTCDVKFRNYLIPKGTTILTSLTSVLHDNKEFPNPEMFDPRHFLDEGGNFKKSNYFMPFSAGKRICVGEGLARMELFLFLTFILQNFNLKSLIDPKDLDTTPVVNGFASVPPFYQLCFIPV

[11] = molecular target: T1, AKT2 (Homo sapiens, UniProt P31751); assay: AKT2 biochemical kinase assay (FP iMAP)
T1 construct: purchased Signal Chem
T1 sequence (P31751 whole entry): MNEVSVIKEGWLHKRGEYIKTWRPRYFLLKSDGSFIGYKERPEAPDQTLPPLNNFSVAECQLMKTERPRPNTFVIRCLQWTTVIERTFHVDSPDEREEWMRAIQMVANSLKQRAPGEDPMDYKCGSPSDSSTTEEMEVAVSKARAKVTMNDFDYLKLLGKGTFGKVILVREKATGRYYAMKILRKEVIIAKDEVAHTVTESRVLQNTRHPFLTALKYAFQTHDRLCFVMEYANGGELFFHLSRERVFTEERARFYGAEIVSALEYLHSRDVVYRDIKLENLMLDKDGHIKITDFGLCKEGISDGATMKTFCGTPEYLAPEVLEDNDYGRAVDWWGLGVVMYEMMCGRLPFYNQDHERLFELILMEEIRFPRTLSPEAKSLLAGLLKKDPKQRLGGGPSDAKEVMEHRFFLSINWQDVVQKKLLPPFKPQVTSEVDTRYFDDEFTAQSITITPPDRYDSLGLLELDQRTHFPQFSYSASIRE
Procedure: Biochemical analysis was performed using kinases obtained from Millipore (AKT1, ∆AKT1, ∆AKT2, ∆AKT3) and Signal Chem (AKT2 and AKT3). […] (Molecular Devices) against the three isoforms of AKT and their PH domain null mutants. Compounds were dissolved in DMSO prior to screening at 14 point titration series in the range (50 µM–50 pM). Fluorescence polarisation was measured using a Biotek Synergy 4 Hybrid microplate reader. Percentage inhibition of kinase activity was calculated and IC50 values derived using non-linear regression on GraphPad Prism. Competition of ALM301 with ATP was determined using AKT1 under increasing ATP concentrations up to 1000 µM.

[12] = LogD7.4 assay; assay type: physicochemical; conditions: octanol/PBS buffer; octanol/PBS pH 7.4
Procedure: Compounds (100 µM) were shaken at 300 rpm at room temperature for 4 h in a biphasic system of octanol and PBS buffer pH 7.4 in a 96-well plate in triplicate. The relative drug concentration in each phase was then determined by the peak area measurement from LC-UV analysis on an Agilent 1260 chromatography instrument (UV detection at 254 nm and 220 nm). LogD is calculated as follows: LogD = Log[peak area of compound in octanol x injection volume of buffer phase/peak area of compound in buffer x injection volume of octanol phase].

CCN1C(=O)COc2nc(-c3ccc([C@]4(N)C[C@@H](O)C4)cc3)c(-c3ccccc3)cc21 [ALM301, 6-(4-((1S,3S)-1-amino-3-hydroxycyclobutyl)phenyl)-1-ethyl-7-phenyl-1H-pyrido[2,3-b][1,4]oxazin-2(3H)-one]
IC50 [1]: 0.16 µM
inhibition of truncated AKT2 lacking PH domain [2]: not inhibited
microsomal CLint at 1 µM [3]: 3 µL/min/mg
IC50 ([4]; 10-point titration curve): > 10 µM
inhibition at 10 µM ([4]; read-out: % inhibition @ 10 µM, p38α, 10 µM fixed concentration): 84%
sub-G0 population (cell-cycle analysis) ([5]; MCF-7, 0.1–100 µM, 72 h): increase of sub-G0 population in a concentration dependent manner
increase in sub-G0 population compared to ALM301 alone ([5]; MCF-7, ALM301 in combination with tamoxifen): 4.5 ×
tumour regression ([6]; ALM301 3 mg/kg q.d. in combination with tamoxifen 5 mg/kg q.d.): 57%
tumour regression ([6]; ALM301 10 mg/kg q.d. in combination with tamoxifen 5 mg/kg q.d.): 50%
tolerability / animal body weight ([6]; monotherapy and in combination with tamoxifen, any dose levels): no significant effects on animal body weight
tumour growth inhibition, single agent ([6]; p.o. 3 or 10 mg/kg once-a-day): minimal tumour growth inhibition
EC50 [7]: 0.47 µM
inhibition versus the additional 21 PH domain containing kinases ([8]; 21 PH domain containing kinases assayed): did not demonstrate any inhibition
selectivity against a panel of over 450 kinases ([8]; fixed concentration of 10 µM): highly selective
microsomal CLint at 1 µM [9]: 6 µL/min/mg
IC50 [10]: > 25 µM
IC50 ([11]; full length AKT2, read-out: IC50 full length AKT2): 0.095 µM
IC50 ([11]; read-out: AKT IC50, AKT2): 0.09 µM
logD at 4 h [12]: 1.2
